The subject of the series is CCRIS mutagenicity, Ames/micronucleus/aberration tests. The series is described as follows: CCRIS mutagenicity studies.
Setting [1] is: Test System: AMES SALMONELLA TYPHIMURIUM, Strain/Indicator: TA98, Metabolic Activation: NONE, Method: STANDARD PLATE.
Where [2] appears, read: Test System: AMES SALMONELLA TYPHIMURIUM, Strain/Indicator: TA100, Metabolic Activation: NONE, Method: STANDARD PLATE.
The mark [3] stands for this setting: Test System: AMES SALMONELLA TYPHIMURIUM, Strain/Indicator: TA1535, Metabolic Activation: NONE, Method: STANDARD PLATE.
[4] abbreviates: Test System: AMES SALMONELLA TYPHIMURIUM, Strain/Indicator: TA98, Metabolic Activation: NONE, Method: PREINCUBATION
[5] abbreviates: Test System: AMES SALMONELLA TYPHIMURIUM, Strain/Indicator: TA100, Metabolic Activation: NONE, Method: PREINCUBATION

The source made the active and inactive calls. No rule for the calls is given here.

On to `C#C[C@]1(OC(C)=O)CC[C@H]2[C@@H]3CCC4=CC(=O)CC[C@@H]4[C@H]3CC[C@@]21C`, for which the mutagenic call by setting is: (Test System: AMES SALMONELLA TYPHIMURIUM, Strain/Indicator: TA97A, Metabolic Activation: NONE, Method: HOST-MEDIATED) “inactive; negative”; (Test System: AMES SALMONELLA TYPHIMURIUM, Strain/Indicator: TA97A, Metabolic Activation: NONE, Method: STANDARD PLATE) “inactive; negative”; (Test System: AMES SALMONELLA TYPHIMURIUM, Strain/Indicator: TA97A, Metabolic Activation: RAT, LIVER, S-9, PHENOBARBITONE, Method: PREINCUBATION) “inactive; negative”; (Test System: AMES SALMONELLA TYPHIMURIUM, Strain/Indicator: TA98, Metabolic Activation: MOUSE, LIVER, S-9, Method: STANDARD PLATE) “inactive; negative”; (Test System: AMES SALMONELLA TYPHIMURIUM, Strain/Indicator: TA98, Metabolic Activation: NONE, Method: HOST-MEDIATED) “inactive; negative”; under setting [1], “inactive; negative”. Besides, the mutagenic call by setting is: (Test System: AMES SALMONELLA TYPHIMURIUM, Strain/Indicator: TA98, Metabolic Activation: RAT, LIVER, S-9, AROCLOR 1254, Method: STANDARD PLATE) “inactive; negative”; (Test System: AMES SALMONELLA TYPHIMURIUM, Strain/Indicator: TA98, Metabolic Activation: RAT, LIVER, S-9, PHENOBARBITONE, Method: PREINCUBATION) “inactive; negative”; (Test System: AMES SALMONELLA TYPHIMURIUM, Strain/Indicator: TA100, Metabolic Activation: MOUSE, LIVER, S-9, Method: STANDARD PLATE) “inactive; negative”; (Test System: AMES SALMONELLA TYPHIMURIUM, Strain/Indicator: TA100, Metabolic Activation: NONE, Method: HOST-MEDIATED) “inactive; negative”; under setting [2], “inactive; negative”; (Test System: AMES SALMONELLA TYPHIMURIUM, Strain/Indicator: TA100, Metabolic Activation: RAT, LIVER, S-9, AROCLOR 1254, Method: STANDARD PLATE) “inactive; negative”. The mutagenic call is, setting by setting: (Test System: AMES SALMONELLA TYPHIMURIUM, Strain/Indicator: TA100, Metabolic Activation: RAT, LIVER, S-9, PHENOBARBITONE, Method: PREINCUBATION) “inactive; negative”; (Test System: AMES SALMONELLA TYPHIMURIUM, Strain/Indicator: TA1535, Metabolic Activation: MOUSE, LIVER, S-9, Method: STANDARD PLATE) “inactive; negative”; (Test System: AMES SALMONELLA TYPHIMURIUM, Strain/Indicator: TA1535, Metabolic Activation: NONE, Method: HOST-MEDIATED) “inactive; negative”; under setting [3], “inactive; negative”; (Test System: AMES SALMONELLA TYPHIMURIUM, Strain/Indicator: TA1535, Metabolic Activation: RAT, LIVER, S-9, AROCLOR 1254, Method: STANDARD PLATE) “inactive; negative”; (Test System: AMES SALMONELLA TYPHIMURIUM, Strain/Indicator: TA1535, Metabolic Activation: RAT, LIVER, S-9, PHENOBARBITONE, Method: PREINCUBATION) “inactive; negative”. In addition, the mutagenic call was “inactive; negative” (Test System: AMES SALMONELLA TYPHIMURIUM, Strain/Indicator: TA1537, Metabolic Activation: MOUSE, LIVER, S-9, Method: STANDARD PLATE); “inactive; negative” (Test System: AMES SALMONELLA TYPHIMURIUM, Strain/Indicator: TA1537, Metabolic Activation: NONE, Method: STANDARD PLATE); “inactive; negative” (Test System: AMES SALMONELLA TYPHIMURIUM, Strain/Indicator: TA1537, Metabolic Activation: RAT, LIVER, S-9, AROCLOR 1254, Method: STANDARD PLATE); “inactive; negative” (Test System: AMES SALMONELLA TYPHIMURIUM, Strain/Indicator: TA1538, Metabolic Activation: MOUSE, LIVER, S-9, Method: STANDARD PLATE); “inactive; negative” (Test System: AMES SALMONELLA TYPHIMURIUM, Strain/Indicator: TA1538, Metabolic Activation: NONE, Method: STANDARD PLATE); “inactive; negative” (Test System: AMES SALMONELLA TYPHIMURIUM, Strain/Indicator: TA1538, Metabolic Activation: RAT, LIVER, S-9, AROCLOR 1254, Method: STANDARD PLATE).
`O=[Se](O)O`: the mutagenic call is, setting by setting: (End Point: IN VIVO CHROMOSOMAL ABERRATIONS, Test System: TESTICULAR CELLS, Species: MOUSE, Strain/Sex: KUNMING/MALE, Route: DIET) “selenite reduced number of chromosomal aberrations induced by mmc”; (End Point: IN VIVO MICRONUCLEUS, Test System: BONE MARROW CELLS, POLYCHROMATIC ERYTHROCYTES, Species: MOUSE, Strain/Sex: KUNMING/FEMALE, Route: DIET) “selenite reduced micronuclei induced by cyclophosphamide”; under setting [3], “active; positive”; (Test System: CHINESE HAMSTER OVARY, Strain/Indicator: CHO-K1-BH4 (HGPRT)/6-THIOGUANINE, Metabolic Activation: NONE) “active; positive”; (Test System: E. COLI, Strain/Indicator: WP2 UVRA, Metabolic Activation: NONE, Method: SPOT TEST) “inactive; negative”; (Test System: MOUSE LYMPHOMA, Strain/Indicator: L5178Y (TK+/TK-), Metabolic Activation: NONE, Method: SUSPENSION/PLATE) “active; positive. reevaluation of results: positive”. Also, the mutagenic call (Test System: MOUSE LYMPHOMA, Strain/Indicator: L5178Y (TK+/TK-), Metabolic Activation: RAT, LIVER, S-9, AROCLOR 1254, Method: SUSPENSION/PLATE) is “active; positive. reevaluation of results: positive” and the mutagenic call (Test System: UDS HUMAN FIBROBLASTS, Strain/Indicator: THY INCORP (NON-S-PHASE), Metabolic Activation: MOUSE, LIVER, S-9, Method: AUTORADIOGRAPHY) was “active; positive”.
Regarding `O=C1c2cccc3ccc4ccc5cccc1c5c4c23`, the mutagenic call was “inactive; negative” under setting [1] and “inactive; negative” under setting [2].
Take `CC(=O)c1cc(NC(=O)NC(C)(C)C)ccc1OCC(O)CNC(C)(C)C` (stereo not given): the mutagenic call under setting [4] is “inactive; negative”; the mutagenic call (Test System: AMES SALMONELLA TYPHIMURIUM, Strain/Indicator: TA98, Metabolic Activation: RAT, LIVER, S-9, PHENOBARBITAL AND 5,6-BENZOFLAVONE (10 OR 50 µL/PLATE), Method: PREINCUBATION) is “inactive; negative”; the mutagenic call under setting [5] was “inactive; negative”; the mutagenic call (Test System: AMES SALMONELLA TYPHIMURIUM, Strain/Indicator: TA100, Metabolic Activation: RAT, LIVER, S-9, PHENOBARBITAL AND 5,6-BENZOFLAVONE (10 OR 50 µL/PLATE), Method: PREINCUBATION) is “inactive; negative”; the mutagenic call (Test System: AMES SALMONELLA TYPHIMURIUM, Strain/Indicator: TA1535, Metabolic Activation: NONE, Method: PREINCUBATION) is “inactive; negative”; the mutagenic call (Test System: AMES SALMONELLA TYPHIMURIUM, Strain/Indicator: TA1535, Metabolic Activation: RAT, LIVER, S-9, PHENOBARBITAL AND 5,6-BENZOFLAVONE (10 OR 50 µL/PLATE), Method: PREINCUBATION) was “inactive; negative”. The mutagenic call was “inactive; negative” (Test System: AMES SALMONELLA TYPHIMURIUM, Strain/Indicator: TA1537, Metabolic Activation: NONE, Method: PREINCUBATION); “inactive; negative” (Test System: AMES SALMONELLA TYPHIMURIUM, Strain/Indicator: TA1537, Metabolic Activation: RAT, LIVER, S-9, PHENOBARBITAL AND 5,6-BENZOFLAVONE (10 OR 50 µL/PLATE), Method: PREINCUBATION); “inactive; negative” (Test System: E. COLI, Strain/Indicator: WP2 UVRA, Metabolic Activation: NONE, Method: PREINCUBATION); “inactive; negative” (Test System: E. COLI, Strain/Indicator: WP2 UVRA, Metabolic Activation: RAT, LIVER, S-9, PHENOBARBITAL AND 5,6-BENZOFLAVONE (10 OR 50 µL/PLATE), Method: PREINCUBATION).
With `OC[C@@H](O)CCl`, the mutagenic call under setting [4] is “inactive; negative”; the mutagenic call (Test System: AMES SALMONELLA TYPHIMURIUM, Strain/Indicator: TA98, Metabolic Activation: RAT, LIVER, S-9, KANECHLOR 500, Method: PREINCUBATION) is “inactive; negative”; the mutagenic call under setting [5] is “active; positive”; the mutagenic call (Test System: AMES SALMONELLA TYPHIMURIUM, Strain/Indicator: TA100, Metabolic Activation: RAT, LIVER, S-9, KANECHLOR 500, Method: PREINCUBATION) was “inactive; negative”; the mutagenic call (Test System: AMES SALMONELLA TYPHIMURIUM, Strain/Indicator: TA100, Metabolic Activation: RAT, LIVER, S-9, PCB, Method: PREINCUBATION) was “active; positive”.
As to `C[C@@H](O)[C@H](N)C(=O)O`, for the setting “Test System: AMES SALMONELLA TYPHIMURIUM, Strain/Indicator: TA98, Metabolic Activation: RAT LIVER S-9, CHLOROPHENE, Method: STANDARD PLATE (COMPOUND HEATED AT 250 DEGREES CELSIUS FOR 20 MIN)”, the mutagenic call is “active; positive”.

The values above are taken from PubChem BioAssay AID1259407 (Chemical Carcinogenesis Research Information System (CCRIS), 2018).
